Reference: article PMC9150102 (Journal of Medicinal Chemistry, 2022)
Read-outs that look alike come from different tables or passages of the source.

Assays:
[1] = biological target: T1, Na^+/K^+ ATPase-alpha1 isoform purified from dog kidneys (Canis lupus familiaris, UniProt P50997); parameters: method as in PMID 36153005; conditions: cited from earlier work
T1 construct: excised from 1–3-year-old male beagle dogs; from tissue; host or cells: dog (beagle) kidney outer medulla, Jørgensen purification

Albino Swiss CD-1 mice = system: Albino Swiss CD-1 mice; parameters: method as in PMID 36153005; conditions: i.v. administration; cited from earlier work
[2] = cited from earlier work
[3] = Acute toxicity (LD50) in mice; conditions: male, Albino Swiss CD-1, mouse, in vivo, po
Experimental: Acute toxicity (LD50) was preliminarily evaluated in mice following i.v. and oral drug administration.
Control animals received the vehicle only.
Drug toxicity studies in mice
Acute toxicity was determined in CD1 mice. Separate mice groups were either orally treated, or
intravenously injected, with increasing doses of the tested substance to identify the dose causing 50%
mortality (LD50). Acute mortality was assessed at 30 min after compound administration; survival was

[4] = biological target: T1, Na^+/K^+ ATPase-alpha1 isoform purified from dog kidneys; assay: Na+/K+ ATPase activity inhibition, purified dog kidney enzyme (32P-ATP hydrolysis); assay type: biochemical
Experimental: Compounds were tested in a concentration range from 10^–9 to 10^–4 M on a purified renal Na^+/K^+ ATPase preparation with a specific activity of 14 μmol/min/mg protein.
Figure 2 Na^+/K^+ ATPase activity inhibition in a dog purified enzyme preparation. All compounds were tested in a concentration range from 10^–9 to 10^–4 M in comparison to ouabain.
The inhibitory effect of compounds was tested at multiple concentrations on Na^+/K^+ ATPase-alpha1 isoform purified from dog kidneys. […]
Renal Na+/K+ ATPase purification and activity
Purification of renal Na+/K+ ATPase was performed according to the method of Jørgensen2. Kidneys were excised from 1–3-year-old male beagle dogs, obtained from the General Pharmacology Department of Sigma-tau, Pomezia, Italy, under pentobarbital anesthesia. Kidneys were sliced and the outer medulla was dissected, pooled and suspended (1g in 10 ml) in a sucrose-histidine solution, containing 250 mM sucrose, 30 mM histidine and 5 mM EDTA, pH 7.2 and homogenized. The homogenate was centrifuged at 6,000 g for 15 min, the supernatant was decanted and centrifuged at 48,000 g for 30 min. The pellet was suspended in the sucrose-histidine buffer and incubated for 20 min with a sodium-dodecyl-sulphate (SDS) solution, dissolved in a gradient buffer, containing 25 mM imidazole and 1 mM EDTA, pH 7.5. The sample was layered on the top of a sucrose discontinuous gradient (10, 15 and 29.4%) and centrifuged at 60,000 g for 115 min. The final pellet was suspended in the gradient buffer.
Na+/K+ ATPase activity was assayed by measuring 32P-ATP hydrolysis, as previously described3.
Increasing concentrations of the standard ouabain, or tested compound, were incubated with 0.3 μg of purified dog kidney enzyme for 10 min at 37°C in 120 μl final volume of a medium, containing 140 mM NaCl, 3 mM MgCl2, 50 mM Hepes-Tris, 3 mM ATP, pH 7.5. Then, 10 μl of incubation solution containing 10 mM KCl and 20 nCi of 32P-ATP (3-10 Ci/mmol, Perkin Elmer) were added, the reaction continued for 15 min at 37°C and was stopped by acidification with 20% ice-cold perchloric acid.
32P was separated by centrifugation with activated Charcoal (Norit A, Serva) and the radioactivity was measured. Effects of increasing concentrations of the tested compound were compared to ouabain, as positive standard, and to vehicle (control) at 37°C. The inhibitory activity was expressed as percent of activity in control. The concentration of compound causing 50% inhibition of the Na+/K+ ATPase activity (IC50) was calculated by non-linear fitting of data points (KaleidagraphTM, Sinergy Software). […]

SERCA2a = biological target: T2, SERCA2a (Cavia porcellus, UniProt A0A286XFU8); assay: SERCA2a ATPase activity, Ca2+ dependency in cardiac SR microsomes from healthy guinea pigs; assay type: biochemical, guinea pig; conditions: for SERCA2a–Ca2+ affinity (KdCa) modulation (words): 10 and 100 nM, healthy guinea pig SR preparations
T2 construct: from tissue; host or cells: guinea pig left ventricle, SR-enriched microsomes
T2 sequence (A0A286XFU8 entry or part of it): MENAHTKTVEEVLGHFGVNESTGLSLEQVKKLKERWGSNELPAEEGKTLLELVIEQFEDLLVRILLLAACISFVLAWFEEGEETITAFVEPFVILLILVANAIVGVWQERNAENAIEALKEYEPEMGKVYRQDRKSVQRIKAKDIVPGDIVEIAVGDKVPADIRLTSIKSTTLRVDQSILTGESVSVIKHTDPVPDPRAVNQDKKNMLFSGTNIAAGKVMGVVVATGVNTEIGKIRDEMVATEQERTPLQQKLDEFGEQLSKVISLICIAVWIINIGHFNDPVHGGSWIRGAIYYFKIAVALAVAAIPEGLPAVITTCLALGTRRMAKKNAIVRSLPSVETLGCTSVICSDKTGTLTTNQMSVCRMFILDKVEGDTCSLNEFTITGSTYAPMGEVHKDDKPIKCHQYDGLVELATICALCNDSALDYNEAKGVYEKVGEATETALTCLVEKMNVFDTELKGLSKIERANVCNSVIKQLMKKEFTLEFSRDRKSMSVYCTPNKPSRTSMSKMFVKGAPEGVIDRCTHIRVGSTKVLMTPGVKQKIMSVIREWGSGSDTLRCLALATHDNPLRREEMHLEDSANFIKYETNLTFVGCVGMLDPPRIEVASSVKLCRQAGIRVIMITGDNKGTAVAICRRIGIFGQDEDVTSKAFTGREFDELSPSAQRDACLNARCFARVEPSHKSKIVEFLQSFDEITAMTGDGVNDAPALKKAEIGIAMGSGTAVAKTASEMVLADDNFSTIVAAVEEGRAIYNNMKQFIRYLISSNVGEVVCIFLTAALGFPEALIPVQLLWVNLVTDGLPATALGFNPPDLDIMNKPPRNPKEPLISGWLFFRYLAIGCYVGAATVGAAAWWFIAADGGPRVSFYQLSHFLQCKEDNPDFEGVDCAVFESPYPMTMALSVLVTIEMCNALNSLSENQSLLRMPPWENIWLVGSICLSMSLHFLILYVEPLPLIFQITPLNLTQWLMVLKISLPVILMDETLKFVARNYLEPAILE
Experimental: SERCA2a ATPase activity was assessed in SR preparations from healthy guinea pig hearts. Ca^2+ dependency of ATPase activity was measured, and kinetic parameters (KdCa and Vmax) were estimated at compound concentrations of 10 and 100 nM.
[…] […] Data are the mean ± SEM. *p < 0.05 (one-way RM ANOVA plus post hoc Tukey’s multiple comparisons or paired t-test).
Measurements were performed in cardiac SR microsomes (guinea pig) and in whole tissue homogenates (rat). Cardiac preparations included SERCA2a and PLN. To test for PLN involvement in the effect of compounds, SERCA1 activity was measured in PLN-free microsomes (from guinea pig skeletal muscle) before and after reconstitution with the synthetic PLN1–32 inhibitory fragment at a ratio of 300:1 for PLN/SERCA. […] Either an increase in Vmax (rat) or a decrease in KdCa (increased Ca^2+ affinity) (guinea pig) stands for enhancement of SERCA function. […]
Left ventricles (LV) were dissected from rat and guinea -pig of healthy and failing preparations and frozen until use. Tissues were homogenized, subjected to centrifugation to obtain SR -enriched microsomes and sarcomeric proteins were extracted, as previously described 4.
(§1) In the case of guinea-pig hearts, LV tissues were homogenized in 4 volumes of 10 mM NaHCO3, 1 mM PMSF, 10 μg/ml aprotinin and leupeptin (pH 7) and centrifuged at 12,000g for 15 minutes. Supernatants were filtered and centrifuged at 100,000 g for 30 min. Contractile proteins were extracted by suspending the pellets with 0.6 M KCl, 30 mM histidine, pH 7 and further centrifugation at 100,000 g for 30 min.
(§2) Final pellets were reconstituted with 0.3 M sucrose, 30 mM histidine, pH 7, to obtain SR-enriched […]
SERCA2a ATPase activity was measured as the rate of 32P-ATP release at multiple Ca2+ concentrations (100-2000 nM) in the absence and presence of tested compounds, as previously described5. Increasing concentrations of each compound were pre-incubated with 2 μg of cardiac preparations for 5 min at 4° C in 80 μl of a solution containing 100 mM KCl, 5 mM MgCl2, 1 μM A23187, 20 mM Tris, pH 7.5. Then, 20 μl of 5 mM Tris-ATP containing 50 nCi of 32P-ATP (3-10 Ci/mmol, Perkin Elmer) were added. The ATP hydrolysis was continued for 15 min at 37°C and the reaction was stopped by acidification with 100 μl of 20% ice-cold perchloric acid. 32P was separated by centrifugation with activated charcoal (Norit A, Serva) and the radioactivity was measured. SERCA2a-dependent ATPase activity was identified as the portion of total hydrolytic activity inhibited by cyclopiazonic acid (CPA, 10 µM). Technical replicates were used to ensure the reliability of single values. […]

STZ diabetic rats = system: STZ diabetic rats; parameters: method as in PMID 36153005; conditions: cited from earlier work
[5] = system: SERCA1 reconstituted with PLN1–32 fragment; assay: SERCA1 ATPase activity after reconstitution with PLN1-32 fragment; assay type: biochemical, guinea pig; conditions: PLN/SERCA 300:1
Experimental: Data are the mean ± SEM. *p < 0.05 (one-way RM ANOVA plus post hoc Tukey’s multiple comparisons or paired t-test).
Measurements were performed in cardiac SR microsomes (guinea pig) and in whole tissue homogenates (rat). Cardiac preparations included SERCA2a and PLN. To test for PLN involvement in the effect of compounds, SERCA1 activity was measured in PLN-free microsomes (from guinea pig skeletal muscle) before and after reconstitution with the synthetic PLN1–32 inhibitory fragment at a ratio of 300:1 for PLN/SERCA. […] Either an increase in Vmax (rat) or a decrease in KdCa (increased Ca^2+ affinity) (guinea pig) stands for enhancement of SERCA function.
(rats). As verified by Western blot, cardiac microsomes preparations included SERCA2a and PLN and skeletal muscle ones included SERCA1 only.
SERCA stimulation4, compounds were also tested on SERCA1 in microsomes of guinea-pig skeletal muscle (PLN-free) before and after reconstitution with the PLN1-32 inhibitory fragment at a ratio of 300:1 […]
Tissues were homogenized, subjected to centrifugation to obtain SR -enriched microsomes and sarcomeric proteins were extracted, as previously described 4.
as §1, §2
SERCA2a ATPase activity was measured as the rate of 32P-ATP release at multiple Ca2+ concentrations (100-2000 nM) in the absence and presence of tested compounds, as previously described5. Increasing concentrations of each compound were pre-incubated with 2 μg of cardiac preparations for 5 min at 4° C in 80 μl of a solution containing 100 mM KCl, 5 mM MgCl2, 1 μM A23187, 20 mM Tris, pH 7.5. Then, 20 μl of 5 mM Tris-ATP containing 50 nCi of 32P-ATP (3-10 Ci/mmol, Perkin Elmer) were added. The ATP hydrolysis was continued for 15 min at 37°C and the reaction was stopped by acidification with 100 μl of 20% ice-cold perchloric acid. 32P was separated by centrifugation with activated charcoal (Norit A, Serva) and the radioactivity was measured. SERCA2a-dependent ATPase activity was identified as the portion of total hydrolytic activity inhibited by cyclopiazonic acid (CPA, 10 µM). Technical replicates were used to ensure the reliability of single values.
Reconstitution of SERCA1 with PLN1-32 synthetic fragment
Adult healthy male guinea-pigs were used to prepare SERCA1-enriched SR microsomes from fast-twitch hind leg muscles. Microsomes were prepared as described for SERCA2a preparations. For reconstitution experiments, SERCA1 (PLN-free) was pre-incubated with synthetic PLN1-32 fragment (canine sequence, Biomatik Corporation, Canada) in 20 mM imidazole, pH 7, at 1:300 SERCA1:PLN ratio for 30 min at room temperature. After pre-incubation, SERCA1 (PLN-free) alone, or reconstituted with PLN1-32 […]
fragment, was utilized for SERCA activity measurement by using 32P-ATP hydrolysis method at different

[6] = biological target: skeletal SERCA1 (sarcoplasmic reticulum calcium ATPase 1) (guinea pig (endogenous in skeletal muscle))
[7] = read-out: NKA Inhibition (IC50 µM)

## C[C@]12CCC(=NOCCN)C[C@@H]1C(=O)C[C@@H]1[C@@H]2CC[C@]2(C)C(=O)CC[C@@H]12 (mixture of isomers) [istaroxime]
[1]; dog renal preparations
  IC50: 0.14 µM
Albino Swiss CD-1 mice
  LD50: 23 mg/kg
[2]
  half-life: ~1 h
[3]
  LD50 at 24 h: 200 mg/kg

## C[C@]12CC/C(=C\CCC(=O)O)C[C@@H]1[C@@H](O)C[C@@H]1[C@@H]2CC[C@]2(C)C(=O)CC[C@@H]12 [Compound 1]
[4]
  IC50: > 100 µM
SERCA2a; 100 nM
  SERCA2a Stimulation @100 nM (DELTA% KdCa): -15%
SERCA2a; 100 nM, guinea pig preparation
  SERCA2a KdCa reduced by: 15%

## C[C@]12CC/C(=C/CCC(=O)O)C[C@@H]1[C@@H](O)C[C@@H]1[C@@H]2CC[C@]2(C)C(=O)CC[C@@H]12 [Compound 2]
[4]
  IC50: > 100 µM
SERCA2a
  SERCA2a–Ca2+ affinity (KdCa) modulation (words): inactive

## C[C@]12CC/C(=C\CCC(=O)O)C[C@@H]1[C@H](O)C[C@@H]1[C@@H]2CC[C@]2(C)C(=O)CC[C@@H]12 [Compound 3]
SERCA2a
  SERCA2a–Ca2+ affinity (KdCa) modulation (words): inactive
SERCA2a; listed as compound 3
  SERCA2a–Ca2+ affinity (KdCa) modulation (words): only a trend to SERCA2a KdCa reduction

## C[C@]12CC/C(=C/CCC(=O)O)C[C@@H]1[C@H](O)C[C@@H]1[C@@H]2CC[C@]2(C)C(=O)CC[C@@H]12 [Compound 4]
[4]
  IC50: > 100 µM
SERCA2a
  SERCA2a–Ca2+ affinity (KdCa) modulation (words): inactive

## C[C@]12CC[C@H](CCCC(=O)O)C[C@@H]1[C@H](O)C[C@@H]1[C@@H]2CC[C@]2(C)C(=O)CC[C@@H]12 [Compound 6]
[4]
  IC50: > 100 µM
SERCA2a; 100 nM
  SERCA2a Stimulation @100 nM (DELTA% KdCa): -23%

## CCOC(=O)CCC[C@H]1CC[C@@]2(C)[C@H](C1)[C@@H](O)C[C@@H]1[C@@H]2CC[C@]2(C)C(=O)CC[C@@H]12 [Compound 7]
[4]; [7]
  IC50: > 100 µM
SERCA2a; 100 nM
  SERCA2a Stimulation @100 nM (DELTA% KdCa): -23%

## C[C@]12CC[C@H](CC(=O)O)C[C@@H]1[C@H](O)C[C@@H]1[C@@H]2CC[C@]2(C)C(=O)CC[C@@H]12 [Compound 9]
SERCA2a
  SERCA2a–Ca2+ affinity (KdCa) modulation (words): inactive

## CCOC(=O)C[C@H]1CC[C@@]2(C)[C@H](C1)[C@@H](O)C[C@@H]1[C@@H]2CC[C@]2(C)C(=O)CC[C@@H]12 [Compound 10]
[4]
  IC50: > 100 µM
SERCA2a; 100 nM
  SERCA2a Stimulation @100 nM (DELTA% KdCa): -26%

## C[C@]12CC[C@H](CCCCCC(=O)O)C[C@@H]1[C@@H](O)C[C@@H]1[C@@H]2CC[C@]2(C)C(=O)CC[C@@H]12 [Compound 11]
[4]; [7]
  IC50: > 100 µM
SERCA2a; 100 nM
  SERCA2a Stimulation @100 nM (DELTA% KdCa): -20%
SERCA2a
  SERCA2a–Ca2+ affinity (KdCa) modulation (words): slightly less active

## CCOC(=O)CCCCC[C@H]1CC[C@@]2(C)[C@H](C1)[C@@H](O)C[C@@H]1[C@@H]2CC[C@]2(C)C(=O)CC[C@@H]12 [Compound 12]
[4]; [7]
  IC50: > 100 µM
SERCA2a
  SERCA2a–Ca2+ affinity (KdCa) modulation (words): slightly less active

## C[C@]12CC/C(=N\OCC(=O)O)C[C@@H]1[C@H](O)C[C@@H]1[C@@H]2CC[C@]2(C)C(=O)CC[C@@H]12 [PST3093, reference compound]
SERCA2a; 1 nM
  SERCA2a KdCa reduced by: 18%
SERCA2a; 100 nM, guinea pig microsomal preparations
  SERCA2a KdCa change: −25%
SERCA2a; 100 nM, guinea pig preparation
  SERCA2a KdCa reduced by: 25%
[1]
  activity against Na+/K+ ATPase: inactive
STZ diabetic rats
  systolic indexes: improved systolic indexes
[2]
  half-life: ~10 h
[3]
  LD50 at 24 h: > 200 mg/kg

## PLN1–32 fragment: synthetic PLN1-32 inhibitory fragment of phospholamban (canine sequence, Biomatik) (MEKVQYLTRSAIRRASTIEMPQQARQKLQNLF) [reference compound]
[5]
  SERCA1 KdCa increased by (reconstitution with PLN1–32): 23–25%

## synthetic PLN(1-32) inhibitory fragment of phospholamban (from UniProt P26678 1-32) (peptide)
[6]
  increase of KdCa (Ca2+ dependency of SERCA1 ATPase activity, 32P-ATP, 37 °C) after reconstitution of skeletal muscle microsomes with PLN(1-32) at 300:1 PLN/SERCA; Vmax not affected: 23 to 25%
